These results are taken from US9499492B2, “4-(ortho)-fluorophenyl-5-fluoropyrimidin-2-yl amines containing a sulfoximine group” (BAYER PHARMA AKTIENGESELLSCHAFT, priority 2012, dated 2016).

The subject of experiment [1] is HeLa, human cervical tumour cells. Put plainly: Proliferation assay, HeLa (Method 3). Type of experiment: cell-based. The settings on record: 4 days, crystal violet, read-out: Inhibition of HeLa cell proliferation IC50. Here is the method:
(§1) After 24 hours, the cells of one plate (zero-point plate) were stained with crystal violet (see below), while the medium of the other plates was replaced by fresh culture medium (200 μl), to which the test substances were added in various concentrations (0 μM, as well as in the range of 0.001-10 μM; the final concentration of the solvent dimethyl sulfoxide was 0.5%). The cells were incubated for 4 days in the presence of test substances. Cell proliferation was determined by staining the cells with crystal violet: the cells were fixed by adding 20 μl/measuring point of an 11% glutaric aldehyde solution for 15 minutes at room temperature. After three washing cycles of the fixed cells with water, the plates were dried at room temperature. The cells were stained by adding 100 μl/measuring point of a 0.1% crystal violet solution (pH 3.0). After three washing cycles of the stained cells with water, the plates were dried at room temperature. The dye was dissolved by adding 100 μl/measuring point of a 10% acetic acid solution. The extinction was determined by photometry at a wavelength of 595 nm. The change of cell number, in percent, was calculated by normalization of the measured values to the extinction values of the zero-point plate (=0%) and the extinction of the untreated (0 μm) cells (=100%).

In experiment [2] the target is CDK2/CycE (Homo sapiens (Human), UniProt P24941). Put plainly: CDK2/CycE kinase assay (Method 2). Type of experiment: biochemical. To be noted: 10 μM ATP. An excerpt:
2. CDK2/CycE Kinase Assay:
CDK2/CycE-inhibitory activity of compounds of the present invention was quantified employing the CDK2/CycE TR-FRET assay as described in the following paragraphs:
Recombinant fusion proteins of GST and human CDK2 and of GST and human CycE, expressed in insect cells (Sf9) and purified by Glutathion-Sepharose affinity chromatography, were purchased from ProQinase GmbH (Freiburg, Germany). As substrate for the kinase reaction biotinylated peptide biotin-Ttds-[…] (C-terminus in amid form) was used which can be purchased e.g. form the company JERINI Peptide Technologies (Berlin, Germany).
(§2) For the assay 50 nl of a 100 fold concentrated solution of the test compound in DMSO was pipetted into a black low volume 384 well microtiter plate (Greiner Bio-One, Frickenhausen, Germany), 2 μl of a solution of CDK2/CycE in aqueous assay buffer [50 mM Tris/HCl pH 8.0, 10 mM MgCl2, 1.0 mM dithiothreitol, 0.1 mM sodium ortho-vanadate, 0.01% (v/v) Nonidet-P40 (Sigma)] were added and the mixture was incubated for 15 min at 22° C. to allow pre-binding of the test compounds to the enzyme before the start of the kinase reaction. […] The concentration of CDK2/CycE was adjusted depending of the activity of the enzyme lot and was chosen appropriate to have the assay in the linear range, typical concentrations were in the range of 130 ng/ml.
(§3) The resulting mixture was incubated 1 h at 22° C. to allow the formation of complex between the phosphorylated biotinylated peptide and the detection reagents. Subsequently the amount of phosphorylated substrate was evaluated by measurement of the resonance energy transfer from the Eu-chelate to the streptavidine-XL. Therefore, the fluorescence emissions at 620 nm and 665 nm after excitation at 350 nm was measured in a TR-FRET reader, e.g. a Rubystar (BMG Labtechnologies, Offenburg, Germany) or a Viewlux (Perkin-Elmer). The ratio of the emissions at 665 nm and at 622 nm was taken as the measure for the amount of phosphorylated substrate.

The test system of experiment [3] is A2780, human ovarian carcinoma cells. Put plainly: Proliferation assay, A2780 (Method 3). To be noted: A2780, 4 days, crystal violet, read-out: Inhibition of A2780 cell proliferation IC50. Type of experiment: cell-based. Here is the method: as §1
For experiment [4], the target named is CDK9/CycT1 (Homo sapiens (Human), UniProt P50750). In words: CDK9/CycT1 kinase assay (Method 1a). Type of experiment: biochemical. The settings on record: for IC50: 10 μM ATP; for Selectivity CDK9/CDK2: derived from Methods 1a. and 2.
CDK9/CycT1, sequence (P50750 whole entry): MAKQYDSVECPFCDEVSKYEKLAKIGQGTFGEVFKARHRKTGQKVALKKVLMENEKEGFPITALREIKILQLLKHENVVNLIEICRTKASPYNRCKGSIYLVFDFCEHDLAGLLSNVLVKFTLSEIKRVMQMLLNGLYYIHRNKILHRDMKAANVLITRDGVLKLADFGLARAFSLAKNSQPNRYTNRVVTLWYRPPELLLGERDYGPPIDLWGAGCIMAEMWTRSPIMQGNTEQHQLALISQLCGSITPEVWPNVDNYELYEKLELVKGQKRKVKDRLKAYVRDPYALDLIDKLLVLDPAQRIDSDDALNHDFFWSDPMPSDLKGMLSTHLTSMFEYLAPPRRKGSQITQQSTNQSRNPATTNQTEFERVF
CDK9/CycT1, sequence (O60563 whole entry partner): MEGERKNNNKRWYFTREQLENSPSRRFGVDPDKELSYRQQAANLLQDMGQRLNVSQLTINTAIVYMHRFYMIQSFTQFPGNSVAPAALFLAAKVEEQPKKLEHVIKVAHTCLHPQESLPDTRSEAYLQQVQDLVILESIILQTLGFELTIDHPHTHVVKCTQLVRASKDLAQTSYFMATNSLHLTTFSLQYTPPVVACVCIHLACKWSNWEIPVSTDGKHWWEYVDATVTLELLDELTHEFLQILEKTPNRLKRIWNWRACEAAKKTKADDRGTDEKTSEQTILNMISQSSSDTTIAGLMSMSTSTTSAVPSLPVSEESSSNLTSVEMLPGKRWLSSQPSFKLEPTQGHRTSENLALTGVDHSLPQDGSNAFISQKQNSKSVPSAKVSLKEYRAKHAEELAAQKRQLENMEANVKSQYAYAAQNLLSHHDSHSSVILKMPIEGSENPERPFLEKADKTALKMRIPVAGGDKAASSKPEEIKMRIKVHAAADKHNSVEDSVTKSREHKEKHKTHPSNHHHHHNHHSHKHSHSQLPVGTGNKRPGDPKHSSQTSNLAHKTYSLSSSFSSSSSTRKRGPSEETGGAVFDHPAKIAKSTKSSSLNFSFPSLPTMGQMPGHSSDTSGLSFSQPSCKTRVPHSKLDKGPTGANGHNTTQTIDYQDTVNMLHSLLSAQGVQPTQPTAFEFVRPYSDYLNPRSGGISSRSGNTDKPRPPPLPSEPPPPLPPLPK
Description: 1a. CDK9/CycT1 Kinase Assay:
CDK9/CycT1-inhibitory activity of compounds of the present invention was quantified employing the CDK9/CycT1 TR-FRET assay as described in the following paragraphs:
Recombinant full-length His-tagged human CDK9 and CycT1, expressed in insect cells and purified by Ni-NTA affinity chromatography, were purchased from Invitrogen (Cat. No PV4131). As substrate for the kinase reaction biotinylated peptide biotin-Ttds-[…] (C-terminus in amid form) was used which can be purchased e.g. form the company JERINI Peptide Technologies (Berlin, Germany).
as §2, with “CDK9/CycT1” for “CDK2/CycE”, “1 μg/ml.” for “130 ng/ml.”
as §3, with “HTRF” for “TR-FRET”

Read-outs that look alike come from different tables or passages of the source.

With `CS(=O)(Cc1cc(Br)cc(Nc2ncc(F)c(-c3ccc(F)cc3F)n2)c1)=NC#N` (single isomer, unassigned) [Example 39, [(3-Bromo-5-{[4-(2,4-difluorophenyl)-5-fluoropyrimidin-2-yl]amino}benzyl)(methyl)oxido-λ^6-sulfanylidene]cyanamide], the IC50 in experiment [1] (Homo sapiens, 96 h) turned out to be 1.06 µM; in experiment [2], 0.43 µM; in experiment [3] (Homo sapiens, A2780, 96 h), 0.619 µM.

As for `Cc1cc(CS(C)(=O)=NC#N)cc(Nc2ncc(F)c(-c3ccc(F)cc3F)n2)c1` (single isomer, unassigned) [Example 36, [(3-{[4-(2,4-Difluorophenyl)-5-fluoro-pyrimidin-2-yl]amino}-5-methylbenzyl)-(methyl)oxido-λ^6-sulfanylidene]cyanamide], the IC50 in experiment [1] was determined as 1.02 µM; in experiment [2] it was 0.4 µM; in experiment [3], 0.338 µM.

Take `CS(=O)(Cc1cc(Br)cc(Nc2ncc(F)c(-c3ccc(F)cc3F)n2)c1)=NC#N` (single isomer, unassigned) [Example 40, [(3-Bromo-5-{[4-(2,4-difluorophenyl)-5-fluoropyrimidin-2-yl]amino}benzyl)(methyl)oxido-λ^6-sulfanylidene]cyanamide]: the IC50 in experiment [1] was found to be 0.697 µM; in experiment [2], 0.102 µM; in experiment [3], 0.371 µM.

For `CS(=N)(=O)Cc1cc(F)cc(Nc2ncc(F)c(-c3ccc(F)cc3F)n2)c1` (single isomer, unassigned) [Example 12, 4-(2,4-Difluorophenyl)-5-fluoro-N-{3-fluoro-5-[(S-methylsulfonimidoyl)methyl]phenyl}pyrimidin-2-amine], the IC50 was 1.94 µM in experiment [1] (Homo sapiens, 96 h); 1.7 µM in experiment [2]; > 1 µM in experiment [3] (Homo sapiens, A2780, 96 h).

Turning to `CS(=N)(=O)Cc1cc(F)cc(Nc2ncc(F)c(-c3ccc(F)cc3F)n2)c1` (racemic) [Example 11, (rac)-4-(2,4-Difluorophenyl)-5-fluoro-N-{3-fluoro-5-[(S-methylsulfonimidoyl)methyl]phenyl}pyrimidin-2-amine], the IC50 came out at 1.32 µM in experiment [1] (Homo sapiens, 96 h) and 0.9 µM in experiment [3] (Homo sapiens, A2780, 96 h).

Regarding `Cc1cc(CS(C)(=O)=NC#N)cc(Nc2ncc(F)c(-c3ccc(F)cc3F)n2)c1` (racemic) [Example 16, (rac)-[(3-{[4-(2,4-Difluorophenyl)-5-fluoropyrimidin-2-yl]amino}-5-methylbenzyl)(methyl)oxido-λ^6-sulfanylidene]cyanamide], the IC50 was found to be 0.85 µM in experiment [1] (Homo sapiens, 96 h); 0.47 µM in experiment [2]; 0.3 µM in experiment [3] (Homo sapiens, A2780, 96 h).

On to `COc1cc(CS(C)(=N)=O)cc(Nc2ncc(F)c(-c3ccc(F)cc3F)n2)c1` (racemic) [Example 21, (rac)-4-(2,4-Difluorophenyl)-5-fluoro-N-{3-methoxy-5-[(S-methylsulfonimidoyl)methyl]phenyl}pyrimidin-2-amine], for which the IC50 in experiment [1] (Homo sapiens, 96 h) was 0.78 µM.

Take `CCOC(=O)N=S(C)(=O)Cc1cccc(Nc2ncc(F)c(-c3ccc(F)cc3F)n2)c1` (racemic) [Example 8, (rac)-Ethyl[(3-{[4-(2,4-difluorophenyl)-5-fluoropyrimidin-2-yl]amino}benzyl)(methyl)oxido-λ^6-sulfanylidene]carbamate]: the IC50 in experiment [1] (Homo sapiens, 96 h) was 4.47 µM; in experiment [2], 0.56 µM.

As to `CS(=N)(=O)Cc1cc(Br)cc(Nc2ncc(F)c(-c3ccc(F)cc3F)n2)c1` (single isomer, unassigned) [Example 41, N-{3-Bromo-5-[(S-methylsulfonimidoyl)methyl]phenyl}-4-(2,4-difluorophenyl)-5-fluoropyrimidin-2-amine], the IC50 in experiment [4] came out at 0.018 µM; in experiment [2] it was 0.509 µM. Moreover, the “Selectivity CDK9/CDK2” value in experiment [4] was 28.

On to `CS(=O)(Cc1cc(F)cc(Nc2ncc(F)c(-c3ccc(F)cc3F)n2)c1)=NC#N` (racemic) [Example 10, (rac)-[(3-{[4-(2,4-Difluorophenyl)-5-fluoropyrimidin-2-yl]amino}-5-fluorobenzyl)(methyl)oxido-λ^6-sulfanylidene]cyanamide], for which the IC50 in experiment [1] (Homo sapiens, 96 h) turned out to be 1.05 µM; in experiment [2], 0.57 µM; in experiment [3] (Homo sapiens, A2780, 96 h), 0.43 µM.

Turning to `Cc1cc(CS(C)(=O)=NC#N)cc(Nc2ncc(F)c(-c3ccc(F)cc3F)n2)c1` (single isomer, unassigned) [Example 35, [(3-{[4-(2,4-Difluorophenyl)-5-fluoro-pyrimidin-2-yl]amino}-5-methylbenzyl)-(methyl)oxido-λ^6-sulfanylidene]cyanamide], the IC50 was 0.458 µM in experiment [1]; 0.39 µM in experiment [2]; 0.327 µM in experiment [3] (Homo sapiens, A2780, 96 h).

For the molecule `CS(=N)(=O)Cc1cc(F)cc(Nc2ncc(F)c(-c3ccc(F)cc3F)n2)c1` (single isomer, unassigned) [Example 13, 4-(2,4-Difluorophenyl)-5-fluoro-N-{3-fluoro-5-[(S-methylsulfonimidoyl)methyl]phenyl}pyrimidin-2-amine], the IC50 in experiment [1] is 1.76 µM; in experiment [2], 0.73 µM; in experiment [3], > 1 µM.

Consider `CS(=N)(=O)Cc1cc(Br)cc(Nc2ncc(F)c(-c3ccc(F)cc3F)n2)c1` (racemic) [Example 19, (rac)-N-{3-Bromo-5-[(S-methylsulfonimidoyl)methyl]phenyl}-4-(2,4-difluorophenyl)-5-fluoropyrimidin-2-amine], for which the IC50 came out at 1.6 µM in experiment [1] (Homo sapiens, 96 h); 0.013 µM in experiment [4]; 0.38 µM in experiment [2]. In addition, the “Selectivity CDK9/CDK2” value in experiment [4] was found to be 30.
